The source of these data is patent EP0363856A1, “Derivative of coumarin, process for its preparation and its use” (HOECHST AKTIENGESELLSCHAFT, priority 1988, dated 1990).

The target in this assay is T1, Angereicherte γ-Glutamyl-Transpeptidasen (Bacillus subtilis subsp. natto, UniProt P63186).
T1 construct: Angereicherte γ-Glutamyl-Transpeptidasen der in Beispiel 3 genannten Mikroorganismen; endogenous in cells; host or cells: Bacillus subtilis "natto" IFO 3025, enzyme enriched from the culture
Put plainly: Incubation of enriched enzyme with cephalosporin substrates (hydrolysis to D-α-Aminoadipinsäure and nucleus). The assay is classed as biochemical. The conditions noted are these: enriched enzyme from Bacillus subtilis; hydrolysis to D-α-Aminoadipinsäure and Desacetyl-7ACA or 7ACA. The source says: Angereicherte γ-Glutamyl-Transpeptidasen der in Beispiel 3 genannten Mikroorganismen wurden mit Desacetyl-Cephalosporin C inkubiert. Nur das Enzym aus Bacillus subtilis, welches auch AAA-AMC spaltet, kann Desacetyl-Cephalosporin C und Cephalosporin C zu D-α-Aminoadipinsäure und Desacetyl-7ACA (18 % Umsetzung) bzw. 7ACA (3 % Umsetzung) hydrolysieren.

T1 sequence (P63186 36-587): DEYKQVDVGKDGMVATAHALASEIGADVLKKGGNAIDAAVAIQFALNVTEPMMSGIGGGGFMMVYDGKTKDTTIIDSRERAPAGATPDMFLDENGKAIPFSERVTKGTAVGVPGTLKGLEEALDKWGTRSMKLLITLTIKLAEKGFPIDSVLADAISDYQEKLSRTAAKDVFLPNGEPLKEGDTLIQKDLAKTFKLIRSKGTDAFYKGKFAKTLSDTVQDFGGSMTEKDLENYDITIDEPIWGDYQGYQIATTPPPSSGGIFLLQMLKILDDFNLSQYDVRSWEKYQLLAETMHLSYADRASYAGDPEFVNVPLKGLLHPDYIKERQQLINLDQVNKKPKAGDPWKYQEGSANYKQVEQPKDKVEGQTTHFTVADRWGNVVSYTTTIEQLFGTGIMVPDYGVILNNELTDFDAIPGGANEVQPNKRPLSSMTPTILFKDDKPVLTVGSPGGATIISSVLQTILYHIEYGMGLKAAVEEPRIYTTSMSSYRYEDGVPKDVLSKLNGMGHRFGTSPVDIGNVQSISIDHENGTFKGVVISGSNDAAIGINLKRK

As for `CC(=O)OCC1=C(C(=O)O)N2C(=O)[C@@H](NC(=O)CCC[C@@H](N)C(=O)O)[C@H]2SC1` [Cephalosporin C], the Umsetzung worked out at 3%.
As to `N[C@H](CCCC(=O)N[C@@H]1C(=O)N2C(C(=O)O)=C(CO)CS[C@H]12)C(=O)O` [Desacetyl-Cephalosporin C], the Umsetzung is given as 18%.
